Measured values: US20110275693A1, “Pharmaceutical Compositions Comprising 2-Oxo-1-Pyrrolidine Derivatives” (UCB PHARMA, S.A., priority 2009, published 2011)

How the values were obtained:
[1] = system: genetically sound-sensitive male mice; assay: Audiogenic seizures in mice; type: in vivo; conditions: audiogenic seizure-susceptible mice; brivaracetam i.p. 30 min, levetiracetam i.p. 60 min pretreatment
Experimental: Audiogenic seizures in mice: Genetically sound-sensitive male mice (16-28 g; n=10 per group), responding with wild running, clonic and tonic convulsions to an acoustic stimulation, were used. Audiogenic seizures were induced by an acoustic stimulus (90 dB, 10-20 kHz) applied for 30 s. The mice were pretreated with either saline, brivaracetam (i.p., 30 min) or levetiracetam (i.p., 60 min), and the proportion of mice protected against clonic convulsions was used as the end point to assess anticonvulsant activity.

[2] = system: patients with post-herpetic neuralgia; conditions: cited from earlier work
[3] = system: pentylenetetrazol-induced clonic convulsions in mice; assay: Chemically induced seizures in mice (pentylenetetrazol); type: in vivo; conditions: i.p. 30 min before seizure induction, higher ED50 values than audiogenic model
Experimental: The dose was selected based on dose-effect curves in saline-treated animals as the convulsive dose inducing clonic convulsions of all four extremities in 97% of the animals. Immediately after administration of the chemoconvulsant, the mice were placed individually in small plastic cages (25 13 8 cm) and observed for the presence of clonic convulsions in all four extremities, for 60 min. The occurrence of tonic convulsions (hindlimb extension) and mortality was also recorded during this interval. The proportion of mice protected against clonic convulsions was calculated and used as the end point for anticonvulsant activity.

[4] = system: epilepsy patients; conditions: adult patients, adjunctive treatment; cited from earlier work
[5] = system: rat hippocampal slices; assay: Epileptiform responses in hippocampal slices (field potentials, CA3 area); type: cell-based, Sprague-Dawley rats; parameters: rate of spontaneous field bursting in HKLCF: dose or concentration left out as unconfirmed; conditions: for evoked epileptiform responses (PS1 amplitude, repetitive PSs) in HKLCF: CA3 area, fimbrial stimulation, high-K+/low-Ca2+ fluid
Experimental: The effect of brivaracetam on epileptiform responses induced by high-K+/low-Ca2+ concentrations or by bicuculline was examined in transverse hippocampal slices prepared from Sprague-Dawley rats according to previously reported standard procedures. The epileptiform responses were induced by passing from a normal perfusion of artificial cerebrospinal fluid (ACSF) (K+3 mM; Ca2+2.4 mM) to either high-K+/low-Ca2+ fluid (HKLCF) (K+7.5 mM; Ca2+0.5 mM) or to […] bicuculline methiodide (BMI)-containing ACSF.
Extracellular field potentials (FPs) were recorded in the CA3 area of the slices with 2 M NaCl-filled glass microelectrodes. The evoked FPs were recorded at 10-min intervals in response to fimbrial stimulation with constant current rectangular pulses that elicit a single population spike (PS) of 50-75% of the maximal amplitude when the slice is in ACSF. In the HKLCF model, 2 min of spontaneous activity were also recorded, in the middle of each 10-min interval between the recordings of evoked responses.
Either brivaracetam or levetiracetam was added to the bathing fluid of the slices 20 min before shifting from ACSF to either HKLCF or […] BMI-containing ACSF, and was kept in the perfusion fluid throughout the experiment.

[6] = system: GAERS rats; assay: Spontaneous SWDs in GAERS rats; type: in vivo, rat
[7] = system: amygdala-kindled rats; assay: Fully amygdala-kindled rats; type: in vivo, rat; conditions: for dose significantly reducing the after-discharge duration: 212.3 is the highest brivaracetam dose tested
[8] = system: corneally kindled mice; assay: Corneal kindling of mice; type: in vivo
[9] = system: rat hippocampal slices; conditions: cited from earlier work

| SMILES | protection against the expression of clonic convulsions [1] | efficacy in the treatment of post-herpetic neuralgia [2] | protection against clonic convulsions induced by pentylenetetrazol [3] | efficacy in the treatment of epilepsy [4] | rate of spontaneous field bursting in HKLCF [5] | evoked epileptiform responses (PS1 amplitude, repetitive PSs) in HKLCF [5] | dose from which spontaneous SWDs are significantly suppressed [6] [mg/kg] | dose giving complete inhibition of spontaneous SWDs ([6]; highest dose tested) [mg/kg] | dose from which significant suppression in motor-seizure severity is induced [7] [mg/kg] | dose significantly reducing the after-discharge duration [7] [mg/kg] | incidence of generalized motor seizures after termination of treatment ([8]; continued corneal stimulations, group previously treated with the highest dose) | incidence of generalized motor seizures ([8]; pretreatment during corneal kindling of mice) | epileptiform responses induced by high-K+/low-Ca2+ concentrations in the perfusion fluid and by bicuculline [9] |
| --- | --- | --- | --- | --- | --- | --- | --- | --- | --- | --- | --- | --- | --- |
| CCC[C@@H]1CC(=O)N([C@@H](CC)C(N)=O)C1 [Brivaracetam, (2S)-2-[(4R)-2-oxo-4-propyl-pyrrolidin-1-yl] butanamide] | protected against the expression of clonic convulsions | effective in the treatment of patients with post-herpetic neuralgia | protected against clonic convulsions induced by pentylenetetrazol | effective in the treatment of epilepsy | reduced the rate of this spontaneous bursting | reduced these epileptiform responses | ≥ 2.1 | 67.9 | ≥ 21.2 | 212.3 | persistent reduction in the incidence of generalized motor seizures | significant reduction in the incidence of generalized motor seizures |  |
| CC[C@@H](C(N)=O)N1CCCC1=O [Levetiracetam] | protected against the expression of clonic convulsions |  |  |  |  | reduced these epileptiform responses |  |  | ≥ 170 | > 1700 |  |  | reduces epileptiform responses |
| CC[C@@H](C(N)=O)N1C[C@H](C=C(F)F)CC1=O [Seletracetam, (2S)-2-[(4S)-4-(2,2-difluorovinyl)-2-oxo-pyrrolidin-1-yl]butanamide] |  |  |  | effective in the treatment of epilepsy |  |  |  |  |  |  |  |  |  |
